Results taken from ChEMBL document CHEMBL5215006, “Antitumor Activity of Piceamycin by Upregulation of N-Myc Downstream-Regulated Gene 1 in Human Colorectal Cancer Cells” (J Nat Prod, 2022).

Test: Toxicity in Balb/c mouse xenografted with human HCT-116 cells assessed as body weight change at 10 mg/kg,ip administrated for 18 days by 3 times per week
Type: organism-based
Conditions: in vivo, 432 h, time 18 day

## CCc1c2c(nc3ccc(OC(=O)N4CCC(N5CCCCC5)CC4)cc13)-c1cc3c(c(=O)n1C2)COC(=O)[C@]3(O)CC [IRINOTECAN]
  Activity: Toxic
